Experimental findings from ChEMBL document CHEMBL2074004, “P-glycoprotein-dependent disposition kinetics of tacrolimus: studies in mdr1a knockout mice” (Pharm Res, 1999) are described below.

Data set [1] concerns the target T1, ATP-dependent translocase ABCB1 (Mus musculus, UniProt P21447). Kind of data set: TP_TRANSPORTER: increase in brain concentration in mdr1a(-/-) mouse. The conditions noted are these: in vivo. Format: functional, organism-based.
The target in data set [2] is T1, ATP-dependent translocase ABCB1. Kind of data set: TP_TRANSPORTER: increase in blood concentration in mdr1a(-/-) mouse. The class given is functional, organism-based. The conditions noted are these: in vivo.

T1 sequence (P21447 whole entry): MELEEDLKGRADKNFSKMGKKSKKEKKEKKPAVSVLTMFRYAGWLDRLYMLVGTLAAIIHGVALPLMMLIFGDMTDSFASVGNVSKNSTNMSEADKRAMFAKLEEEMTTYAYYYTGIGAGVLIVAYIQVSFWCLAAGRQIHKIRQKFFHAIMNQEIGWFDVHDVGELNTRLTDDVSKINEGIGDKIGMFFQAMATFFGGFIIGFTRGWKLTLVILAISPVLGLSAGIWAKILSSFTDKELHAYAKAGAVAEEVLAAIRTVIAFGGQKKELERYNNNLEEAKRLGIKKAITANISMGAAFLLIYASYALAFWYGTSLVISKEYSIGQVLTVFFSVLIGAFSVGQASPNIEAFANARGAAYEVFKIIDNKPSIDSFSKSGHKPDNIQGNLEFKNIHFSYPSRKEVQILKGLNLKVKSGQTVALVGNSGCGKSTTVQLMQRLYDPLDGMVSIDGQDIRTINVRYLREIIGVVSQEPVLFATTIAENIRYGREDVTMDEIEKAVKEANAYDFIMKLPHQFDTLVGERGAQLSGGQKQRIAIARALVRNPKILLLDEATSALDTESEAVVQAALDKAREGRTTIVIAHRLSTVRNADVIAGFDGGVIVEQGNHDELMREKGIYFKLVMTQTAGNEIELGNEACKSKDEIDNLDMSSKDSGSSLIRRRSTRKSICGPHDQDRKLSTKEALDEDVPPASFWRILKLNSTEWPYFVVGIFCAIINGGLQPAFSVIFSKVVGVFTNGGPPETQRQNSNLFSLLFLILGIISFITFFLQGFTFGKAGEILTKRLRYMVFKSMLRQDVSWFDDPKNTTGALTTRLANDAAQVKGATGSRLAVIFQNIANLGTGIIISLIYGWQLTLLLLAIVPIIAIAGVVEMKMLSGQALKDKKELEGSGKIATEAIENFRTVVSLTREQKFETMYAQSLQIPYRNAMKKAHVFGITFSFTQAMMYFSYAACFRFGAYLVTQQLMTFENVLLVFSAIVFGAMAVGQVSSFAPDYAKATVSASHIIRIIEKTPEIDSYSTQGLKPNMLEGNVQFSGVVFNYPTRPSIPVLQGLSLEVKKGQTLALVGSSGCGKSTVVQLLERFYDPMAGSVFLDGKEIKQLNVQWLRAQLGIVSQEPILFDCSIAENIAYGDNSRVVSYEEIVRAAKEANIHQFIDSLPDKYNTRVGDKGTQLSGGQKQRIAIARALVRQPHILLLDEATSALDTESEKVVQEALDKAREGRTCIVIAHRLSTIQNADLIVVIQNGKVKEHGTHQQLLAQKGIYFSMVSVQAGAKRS

Consider `C=CC[C@@H]1/C=C(\C)C[C@H](C)C[C@H](OC)[C@H]2O[C@@](O)(C(=O)C(=O)N3CCCC[C@H]3C(=O)O[C@H](/C(C)=C/[C@@H]3CC[C@@H](O)[C@H](OC)C3)[C@H](C)[C@@H](O)CC1=O)[C@H](C)C[C@@H]2OC` [TACROLIMUS ANHYDROUS], for which the Activity entry in data set [1] and in data set [2] was “substrate [+]” each time.
